The source of these data is patent US7319094B2, “Increased and sustained in vivo gene expression using a nucleic acid, histone and amphipathic compound composition” (Rhode Island Hospital, priority 2001, dated 2008).

“Also recorded” adds a separate entry of the source.

What all share (type): cell-based, human
Experiment [1] concerns p53. As to the kind of experiment: p53 expression, Western blot / MICE assay. Conditions: PNET2 cells induced to express AD7c-NTP, growth factor stimulated. The text has this: (§1) Standard Western blot assays wew used to measure cellular levels of p53, Bcl-2, p21/Waf1, phospho-tau, tau, c-fos, NTP, and activated (phosphorylated) forms of Erk mitogen activated protein (MAP) kinase, amino-terminal c-jun-activated kinase (pJNK), and p38/HOG1. Immunoprecipitation followed by Western blot analysis was used to measure p85 subunit associated with IRS1. For Western blot analysis of p53 Bcl-2, phospho-tau, tau, c-fos, and NTP, the cells were lysed in ice cold radioimmunoprecipitation assay (RIPA) buffer supplemented with protease and phosphatase inhibitors. For the immunoprecipitation studies, Western blot analysis of phospho-Erk, pJNK, and p38, and the PI3 kinase assays, the cells were harvested in Triton lysis buffer supplemented with protease and phosphatase inhibitors. Protein concentrations were measured using the BCA assay (Pierce, Rockford, Ill.). Samples containing 60 μg of protein were fractionated by sodium dodecyl sulfate polyacrylamide gel electrophoresis (SDS-PAGE), then transferred to PVDF membranes, and analyzed by Western immunoblotting. Immunoreactivity was detected with horseradish peroxidase conjugated secondary IgG and PicoWest enhanced chemiluminescence reagents (Pierce Chemical Company, Rockford, Ill.). CAT activity was measured using known methods.
(§2) The MICE assay is known in the art (e.g., as described by de la Monte et al., 1999, Biotechniques 26:107301076). The assay is a rapid and sensitive method for quantifying immunoreactivity in 96-well micro-cultures and combines the advantages of the enzyme-linked immunosorbant assay with immunocytochemical staining to permit sensitive in situ quantification of protein expression with values normalized to cell density. […] Immunoreactivity was detected using horseradish peroxidase conjugated secondary antibody (Pierce, Rockford, Ill.) and the TMB soluble peroxidase substrate (Pierce, Rockford, Ill.). Absorbances were measured at 450 nm using a Spectracount plate reader. […]
Background: Immunoblotting shows a protein as a band on a membrane.

Experiment [2] has as its system Bcl-2. As to the kind of experiment: Bcl-2 expression, Western blot / MICE assay. Conditions: PNET2 cells induced to express AD7c-NTP, growth factor stimulated.
Excerpt: as §1, §2

Experiment [3] relates to p21/Waf1. The experiment can be described thus: p21/Waf1 expression, Western blot / MICE assay. To be noted: PNET2 cells induced to express AD7c-NTP, growth factor stimulated.
Excerpt: as §1, with “For the immunoprecipitation studies, Western blot analysis of phospho-Erk, pJNK, and p38, and the PI3 kinase assays, the cells were harvested in Triton lysis buffer supplemented with protease and phosphatase inhibitors.” left out
(§3) The MICE assay is known in the art (e.g., as described by de la Monte et al., 1999, Biotechniques 26:107301076). […] Immunoreactivity was detected using horseradish peroxidase conjugated secondary antibody (Pierce, Rockford, Ill.) and the TMB soluble peroxidase substrate (Pierce, Rockford, Ill.). […]

For experiment [4], the system named is p25. The experiment can be described thus: p25 expression, Western blot / MICE assay. To be noted: PNET2 cells induced to express AD7c-NTP.
Excerpt: as §1, with “For the immunoprecipitation studies, Western blot analysis of phospho-Erk, pJNK, and p38, and the PI3 kinase assays, the cells were harvested in Triton lysis buffer supplemented with protease and phosphatase inhibitors.” left out
as §3

Consider “insulin: Human insulin purchased from Novagen”, for which, in experiment [1], the p53 level result is reported as “high levels of p53; also recorded: significantly increased levels”. Besides, the Bcl-2 level result in experiment [2] is reported as “virtually undetectable Bcl-2 expression; also recorded: reduced levels”. Besides, the p21/Waf1 level entry in experiment [3] was “increased levels of p21/Waf1; also recorded: significantly increased levels”. For the same substance, the p25 level result in experiment [4] was “significantly increased levels”.
